Assays:
WT STING [1] = target: T1, WT STING (Homo sapiens, UniProt Q86WV6, H232R); experiment: Digitonin assay using 293T wtSTING-FL reporter cells; type: cell-based; set-up: host or cells: 293T (ATCC CRL-3216), stably transfected; also carries the 4xISRE firefly luciferase reporter; conditions: 293T wtSTING-FL cells, digitonin buffer 30 min, then 5 h, ISRE firefly luciferase reporter; read-out: Digitonin assay EC50 WT STING
Description: (§1) Two complementary oligonucleotides of the sequence […] […] […] […] (SEQ ID NO: 1) and […] […] (SEQ ID NO:2) containing four interferon-sensitive response elements (ISRE) were synthesized by Sigma Aldrich (Czech Republic, Prague). The oligonucleotides were mixed in equal molar amounts, hybridized, and cleaved by restriction endonucleases HindIII (cat. #. R^0104S, NEB, Ipswich, USA) and BglII (cat. # R^0144S, NEB, Ipswich, USA). Ultimately, they were ligated into plasmid pGL4.27 (cat. # E6651, Promega, Madison, USA) linearized with the same enzymes. As a result, the sequence with four ISRE sites was placed upstream of the minimum promoter of firefly luciferase reporter gene.
293T cells (cat. # CRL-3216, ATCC, Manassas, USA) were seeded a day before transfection at density 125,000 cells per cm^2 onto poly-D-lysine (cat. # P6407, Sigma Aldrich, Czech Republic) coated six well plates in antibiotic free DMEM with high glucose (cat. # D5796, Sigma Aldrich, Czech Republic) supplemented with 10% heat inactivated FBS (cat. # S1520, Biowest, Riverside, USA). On the day of transfection, 2.5 μg of the plasmid pUNO1-hSTING-WT (cat. # punol-hstingwt, InvivoGen, San Diego, USA,) encoding human wild type STING (WT STING) was diluted in 125 μL OptiMEM medium (cat. #31985062, ThermoFisher, Waltham, USA) and mixed with 125 μL of the same medium containing 12.5 μL of Lipofectamine 2000 (cat. #11668019, ThermoFisher, Waltham, USA). After 5 minutes incubation at room temperature (RT), 250 μL of the mixture was added dropwise to the cells in one well. Cells were incubated 36 hours at 37° C. with 5% CO2, and then detached with 0.05% Trypsin and 0.22 g/L EDTA (both cat. # L0941, Biowest, Riverside, USA).
Transfected cells were seeded onto poly-D-lysine coated six well plates at density 50,000 cells per 1 cm^2 in DMEM medium with high glucose containing 10% heat inactivated FBS, […] blasticidin (cat. # ant-bl-05, InvivoGen, San Diego, USA), 0.06 mg/ml Penicillin G and 0.1 mg/ml Streptomycin Sulfate (both cat. #. L0018, Biowest, Riverside, USA). The medium was replenished every 3-4 days until visible colonies of cells resistant to blasticidin were formed.
Blasticidin resistant cells stably expressing WT STING were further transfected with […] plasmid following the same procedure as described above. The transfected cells were selected for the resistance to 300 μg/mL hygromycin (cat. #. 10687010, ThermoFisher, Waltham, USA) in DMEM with high glucose containing 10% heat inactivated FBS, […] blasticidin, 0.06 mg/ml Penicillin G and 0.1 mg/ml Streptomycin Sulfate. Homogeneous culture of stably double transfected cells was prepared by limiting dilution of cells in 96 well plates and wells with cells were selected that originated from a single cell. These cells were expanded, and expression of WT STING was confirmed by western blot using monoclonal mouse anti STING antibodies (cat. #. MAB7169, 1:1000 dilution; […] cat. #. HAF007, 1:2000 dilution, both from R&D Systems, Minneapolis, USA), and by induction of firefly luciferase expression in the presence of 50 μM STING agonist 2′3′ cGAMP (cat. # tlrl-nacga23, InvivoGen, San Diego, USA). Genomic DNA from the transfected cells was amplified with primers pUNO1_Seq_F ([…]) (SEQ ID NO:3) and pUNO1_Seq_R ([…]) (SEQ ID NO:4) that were complementary to pUNO1 plasmid and the presence of WT STING gene in the transfected cells was confirmed by DNA sequencing.
293T wtSTING-FL cells were seeded at density of 250,000 cells per cm^2 onto 96 well poly-D-lysine coated plates in 100 μl DMEM with high glucose supplemented with 10% heat inactivated FBS. […]

WT STING [2] = target: T1, WT STING; experiment: 293T wt STING reporter assay; type: cell-based; set-up: host or cells: 293T (ATCC CRL-3216), stably transfected; also carries the 4xISRE firefly luciferase reporter; conditions: 293T wtSTING-FL cells, no digitonin, 7 h incubation, ISRE firefly luciferase reporter
Description: as §1
293T cells (cat. # CRL-3216, ATCC, Manassas, USA) were seeded a day before transfection at density 125,000 cells per cm^2 onto poly-D-lysine (cat. # P6407, Sigma Aldrich, Czech Republic) coated six well plates in antibiotic free DMEM with high glucose (cat. # D5796, Sigma Aldrich, Czech Republic) supplemented with 10% heat inactivated FBS (cat. # S1520, Biowest, Riverside, USA). […]

T1 sequence (Q86WV6 whole entry H232R): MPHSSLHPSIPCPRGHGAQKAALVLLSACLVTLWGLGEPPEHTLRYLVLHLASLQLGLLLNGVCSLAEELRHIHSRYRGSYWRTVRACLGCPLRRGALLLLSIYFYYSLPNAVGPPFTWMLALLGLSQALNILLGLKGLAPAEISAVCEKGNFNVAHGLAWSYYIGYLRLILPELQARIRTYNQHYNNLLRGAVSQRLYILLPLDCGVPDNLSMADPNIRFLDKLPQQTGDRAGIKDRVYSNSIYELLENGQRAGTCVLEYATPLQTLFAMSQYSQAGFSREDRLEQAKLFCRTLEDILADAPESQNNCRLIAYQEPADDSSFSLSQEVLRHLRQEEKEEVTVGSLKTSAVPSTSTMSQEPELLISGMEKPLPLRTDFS

EC50 (WT STING [1])	EC50 (WT STING [2])	Compound
40 nM	11000 nM	Nc1ncnc2c1ncn2[C@@H]1O[C@@H]2COP(=O)(S)O[C@@H]3[C@H](F)[C@@H](COP(=O)(S)O[C@H]2[C@H]1F)C[C@H]3n1cnc2c(=O)[nH]cnc21 (single isomer, unassigned) [Compound 128a]
20 nM	500 nM	Nc1ncnc2c1ncn2[C@@H]1O[C@@H]2COP(=O)(S)O[C@@H]3[C@H](F)[C@@H](COP(=O)(S)O[C@H]2[C@H]1F)C[C@H]3n1cnc2c(=O)[nH]cnc21 (single isomer, unassigned) [Compound 128d]
